Results from US10975078B2, “Fused indazole pyridone compounds as antivirals” (priority 2017, dated 2021).

Test system: HBsAg secretion, HepG2-Clone42 cells (Tet-inducible HBV-expressing, HBV ayw strain)
Assay: HBsAg assay (HBsAg ELISA, secreted HBV sAg from HepG2-Clone42 cells)
Assay type: cell-based
Settings: Hepatitis B virus, read-out: HBsAg (nM), EC50 = concentration at which HBsAg secretion was reduced 50% compared to DMSO control
Description: HepG2-Clone42, a Tet-inducible HBV-expressing cell line with a stably integrated 1.3 mer copy of the HBV ayw strain, was generated based on the Tet-inducible HepAD38 cell line with slight modifications. Ladner S K, et al., Antimicrobial Agents and Chemotherapy. 41(8):1715-1720 (1997). HepG2-Clone42 cells were cultured in DMEM/F-12+Glutamax™ (Life Technologies, Carlsbad, Calif., USA), supplemented with 10% fetal bovine serum (Life Technologies), G-418 (Corning, Manassas, Va., USA) at a final concentration of 0.5 mg/mL, and 5 μg/mL Doxycycline (Sigma, St. Louis, Mo., USA) and maintained in 5% CO2 at 37° C.
HepG2-Clone42 cells were seeded into black clear-bottom 96-well plates at a concentration of 6.0×10^4 cells/well. 24 hours post-seeding, the cells were treated with 200 μl/well of media containing five-fold serial dilutions of compounds in DMSO. DMSO alone was used as the no drug control. The final DMSO concentration in all wells was 0.5%.
The HBsAg ELISA kit (Alpha Diagnostic International, San Antonio, Tex., USE, Catalog #4110) was used to determine the level (semi-quantitative) of secreted HBV sAg. The HBSAg ELISA assay was performed following the manufacturer's protocol as described.
Step 1. Pipet 100 μL each of compound or DMSO treated samples into HBsAg ELISA plates. Seal plates and incubate at room temp for 60 minutes.
Step 2. Aspirate samples and wash three times with Wash Buffer. Dispense 100 μL of antibody-HRP conjugate to each well. Incubate at room temp for 30 minutes.
Step 3. Aspirate samples and wash three times with Wash Buffer. Add 100 μL of TMB Substrate to all wells and incubate 15 minutes at room temp.
Step 4. Dispense 100 μL of Stop Solution to each well. Measure absorbance of ELISA plate at 450 nm.
Dose-response curves were generated and the EC50 value was defined as the compound concentration at which HBsAg secretion was reduced 50% compared to the DMSO control.
EC50 values were determined as follows:
Determine the percent of HBsAg secretion inhibition. Calculate the percent inhibition on of HBsAg secretion inhibition using the following equation: […]
where XC is the absorbance signal from compound-treated well; MB is average absorbance signal (background signal) for column 12 (no cells+HBsAg ELISA sample buffer) and MD is average absorbance signal from DMSO-treated wells. Then calculate EC50 values by non-linear regression using a four parameter curve logistic equation.
The curve fit model employed is XLFit Dose Response One Site Model 204: y=(A+((B−A)/(1+(10^((C−x)*D))))) where A is the minimum y value, B is the maximum y value, C is the log EC50 value, and D is the slope factor. In the following table+≥100 nM; 100 nM>++≥1 nM; 1 nM>+++

SMILES	EC50 [nM]
CC(C)(C)C1Cn2nc3c(OCCOCC(F)(F)F)cccc3c2-c2cc(=O)c(C(=O)O)cn21 (centres unmarked) [Example 2.3, 6-(tert-butyl)-2-oxo-10-(2-(2,2,2-trifluoroethoxy)ethoxy)-6,7-dihydro-2H-pyrido[2′,1′:3,4]pyrazino[1,2-b]indazole-3-carboxylic Acid]	< 1
COc1ccc2c3n(nc2c1)CC(C(C)(C)C)n1cc(C(=O)O)c(=O)cc1-3 (single isomer, unassigned) [Example 1.2-I, 6-(tert-butyl)-11-methoxy-2-oxo-6,7-dihydro-2H-pyrido[2′,1′:3,4]pyrazino[1,2-b]indazole-3-carboxylic acid]	1 to 100
CC(C)(C)C1Cn2nc3c(OCC4(CS(C)(=O)=O)CC4)cccc3c2-c2cc(=O)c(C(=O)O)cn21 (racemic) [Example 2.24, 6-(tert-butyl)-10-((1-((methylsulfonyl)methyl)cyclopropyl)methoxy)-2-oxo-6,7-dihydro-2H-pyrido[2′,1′:3,4]pyrazino[1,2-b]indazole-3-carboxylic Acid]	> 100
CC(C)(C)C1Cn2nc3c(OCCCS(C)(=O)=O)cccc3c2-c2cc(=O)c(C(=O)O)cn21 (racemic) [Example 2.30, 6-(tert-butyl)-10-(3-(methylsulfonyl)propoxy)-2-oxo-6,7-dihydro-2H-pyrido[2′,1′:3,4]pyrazino[1,2-b]indazole-3-carboxylic Acid]	1 to 100
COCCCOc1cccc2c3n(nc12)C[C@@H](C(C)(C)C)n1cc(C(=O)O)c(=O)cc1-3 [Example 9.1, (R)-6-(tert-butyl)-10-(3-methoxypropoxy)-2-oxo-6,7-dihydro-2H-pyrido[2′,1′:3,4]pyrazino[1,2-b]indazole-3-carboxylic Acid]	< 1
CC(C)(C)C1Cn2nc3c(OC[C@@H]4CCC(=O)N4)cccc3c2-c2cc(=O)c(C(=O)O)cn21 (single isomer, unassigned) [Example 2.33-I]	> 100
CCOc1cccc2c3n(nc12)CC(C(C)(C)C)n1cc(C(=O)O)c(=O)cc1-3 (racemic) [Example 2.42, 6-(tert-butyl)-10-ethoxy-2-oxo-6,7-dihydro-2H-pyrido[2′,1′:3,4]pyrazino[1,2-b]indazole-3-carboxylic Acid]	< 1
CC(C)(C)C1Cn2nc3c(OCCOC(F)(F)F)cccc3c2-c2cc(=O)c(C(=O)O)cn21 (racemic) [Example 2.9, 6-(tert-butyl)-2-oxo-10-(2-(trifluoromethoxy)ethoxy)-6,7-dihydro-2H-pyrido[2′,1′:3,4]pyrazino[1,2-b]indazole-3-carboxylic Acid]	< 1
CCOCCCOc1cccc2c3n(nc12)CC(C(C)(C)C)n1cc(C(=O)O)c(=O)cc1-3 (racemic) [Example 2.14, 6-(tert-butyl)-10-(3-ethoxypropoxy)-2-oxo-6,7-dihydro-2H-pyrido[2′,1′:3,4]pyrazino[1,2-b]indazole-3-carboxylic Acid]	< 1
COCCCOc1cccc2c3n(nc12)CC(C(C)(C)C)n1cc(C(=O)O)c(=O)cc1-3 (racemic) [Example 2.31, 6-(tert-butyl)-10-(3-methoxypropoxy)-2-oxo-6,7-dihydro-2H-pyrido[2′,1′:3,4]pyrazino[1,2-b]indazole-3-carboxylic Acid]	< 1
CC1(COc2cccc3c4n(nc23)CC(C(C)(C)C)n2cc(C(=O)O)c(=O)cc2-4)COC1 (racemic) [Example 2.45, 6-(tert-butyl)-10-((3-methyloxetan-3-yl)methoxy)-2-oxo-6,7-dihydro-2H-pyrido[2′,1′:3,4]pyrazino[1,2-b]indazole-3-carboxylic Acid]	1 to 100
CC(C)(C)C1Cn2nc3c(OC(F)F)cccc3c2-c2cc(=O)c(C(=O)O)cn21 (centres unmarked) [Example 2.5, 6-(tert-butyl)-10-(difluoromethoxy)-2-oxo-6,7-dihydro-2H-pyrido[2′,1′:3,4]pyrazino[1,2-b]indazole-3-carboxylic Acid]	1 to 100
COCC(C)Oc1cccc2c3n(nc12)CC(C(C)(C)C)n1cc(C(=O)O)c(=O)cc1-3 (single isomer, unassigned) [Example 2.35-I, 6-(tert-butyl)-10-((1-methoxypropan-2-yl)oxy)-2-oxo-6,7-dihydro-2H-pyrido[2′,1′:3,4]pyrazino[1,2-b]indazole-3-carboxylic Acid]	1 to 100
CC(C)(C)C1Cn2nc3c(OCC4CCCO4)cccc3c2-c2cc(=O)c(C(=O)O)cn21 (centres unmarked) [Example 2.25, 6-(tert-butyl)-2-oxo-10-((tetrahydrofuran-2-yl)methoxy)-6,7-dihydro-2H-pyrido[2′,1′:3,4]pyrazino[1,2-b]indazole-3-carboxylic Acid]	1 to 100
CC(C)(C)C1Cn2nc3c(OCC(O)CO)cccc3c2-c2cc(=O)c(C(=O)O)cn21 (racemic) [Example 2.28, 6-(tert-butyl)-10-(2,3-dihydroxypropoxy)-2-oxo-6,7-dihydro-2H-pyrido[2′,1′:3,4]pyrazino[1,2-b]indazole-3-carboxylic Acid]	> 100

Same assay, conditions: read-out: HBsAg, EC50 = concentration at which HBsAg secretion was reduced 50% compared to DMSO control

SMILES	EC50 [nM]
COCCCOc1cccc2c3n(nc12)CC(C(C)(C)C)n1cc(C(=O)O)c(=O)c(F)c1-3 (single isomer, unassigned) [Example 8.1-I, 6-(tert-butyl)-1-fluoro-10-(3-methoxypropoxy)-2-oxo-6,7-dihydro-2H-pyrido[2′,1′:3,4]pyrazino[1,2-b]indazole-3-carboxylic Acid]	> 100
COc1cccc2c3n(nc12)C1COC(C)(C)C1n1cc(C(=O)O)c(=O)cc1-3 (single isomer, unassigned) [Example 10.1-I, 12-methoxy-3,3-dimethyl-7-oxo-1,3,3a,14a-tetrahydro-7H-furo[3′,4′:5,6]pyrido[2′,1′:3,4]pyrazino[1,2-b]indazole-6-carboxylic Acid]	> 100
COCCCOc1cccc2c3n(nc12)C1CCC(C)(C)C1n1cc(C(=O)O)c(=O)cc1-3 (single isomer, unassigned) [Example 6.1-I, 12-(3-methoxypropoxy)-3,3-dimethyl-7-oxo-2,3,3a,14a-tetrahydro-1H,7H-cyclopenta[5,6]pyrido[2′,1′:3,4]pyrazino[1,2-b]indazole-6-carboxylic Acid]	> 100
COCCOc1cccc2c3n(nc12)CC(C(C)(C)C)n1cc(C(=O)O)c(=O)cc1-3 (single isomer, unassigned) [Example 2.2-II, 6-(tert-butyl)-10-(2-methoxyethoxy)-2-oxo-6,7-dihydro-2H-pyrido[2′,1′:3,4]pyrazino[1,2-b]indazole-3-carboxylic Acid]	< 1
COCC(C)Oc1cccc2c3n(nc12)CC(C(C)(C)C)n1cc(C(=O)O)c(=O)cc1-3 (single isomer, unassigned) [Example 2.35-II, 6-(tert-butyl)-10-((1-methoxypropan-2-yl)oxy)-2-oxo-6,7-dihydro-2H-pyrido[2′,1′:3,4]pyrazino[1,2-b]indazole-3-carboxylic Acid]	1 to 100
COCCCOc1cccc2c3n(nc12)CC(C(C)(C)C)n1cc(C(=O)O)c(=O)c(F)c1-3 (single isomer, unassigned) [Example 8.1-II, 6-(tert-butyl)-1-fluoro-10-(3-methoxypropoxy)-2-oxo-6,7-dihydro-2H-pyrido[2′,1′:3,4]pyrazino[1,2-b]indazole-3-carboxylic Acid]	1 to 100
COc1cccc2nn3c(c12)-c1cc(=O)c(C(=O)O)cn1C(C(C)(C)C)C3 (single isomer, unassigned) [Example 1.4-I, 6-(tert-butyl)-13-methoxy-2-oxo-6,7-dihydro-2H-pyrido[2′,1′:3,4]pyrazino[1,2-b]indazole-3-carboxylic acid]	> 100
COCCOc1cccc2c3n(nc12)CC(C(C)(C)C)n1cc(C(=O)O)c(=O)cc1-3 (single isomer, unassigned) [Example 2.2-I, 6-(tert-butyl)-10-(2-methoxyethoxy)-2-oxo-6,7-dihydro-2H-pyrido[2′,1′:3,4]pyrazino[1,2-b]indazole-3-carboxylic Acid]	> 100
